From ChEMBL document CHEMBL1201862, “PubChem BioAssay data set” (2004)
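Protocol summary: plate cells (96-well), add compound at 5 concentrations, incubate 48 h, interpolate endpoints linearly. The concentration for 50% growth inhibition is given as GI50.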 Activity calls are given as the source filed them. Cut-off read from the data, not from the text of the source: active = GI50 up to about 1.1 µM and inactive = higher.

Experiments:
Assay in all cases: NCI tumour cell line growth inhibition, 48 h
[1] = system: LOX IMVI
[2] = system: NCI-H23
[3] = system: OVCAR-5
[4] = system: SK-MEL-2
[5] = system: SF-268
[6] = system: HCT-15
[7] = system: SK-MEL-28
[8] = system: SK-MEL-5
[9] = system: CAKI-1
[10] = system: UACC-257
[11] = system: MDA-MB-231
[12] = system: SNB-75
[13] = system: HL-60
[14] = system: SF-539
[15] = system: HOP-92
[16] = system: MDA-N
[17] = system: MOLT-4
[18] = system: COLO 205
[19] = system: PC-3
[20] = system: BT-549

Row | Structure (SMILES) | GI50 [1] | GI50 [2] | GI50 [3] | GI50 [4] | GI50 [5] | GI50 [6] [µM] | GI50 [7] | GI50 [8] | GI50 [9] | GI50 [10] | GI50 [11] | GI50 [12] | GI50 [13] | GI50 [14] | GI50 [15] | GI50 [16] | GI50 [17] | GI50 [18] | GI50 [19] | GI50 [20]
1 | CN(C)CCCNC(=O)CCNC(=O)c1cc(NC(=O)c2cc(NC(=O)c3cc(NC(=O)c4nc(NC(=O)CCCNC(=O)c5cc(NC(=O)c6cc(NC(=O)c7cc(NC(=O)c8nccn8C)cn7C)cn6C)cn5C)cn4C)cn3C)cn2C)cn1C | > 100 µM (inactive) | > 100 µM (inactive) | > 100 µM (inactive) | > 100 µM (inactive) | > 100 µM (inactive) | > 100 | > 100 µM (inactive) | > 100 µM (inactive) | > 100 µM (inactive) | > 100 µM (inactive) | > 100 µM (inactive) | > 100 µM (inactive) | > 100 µM (inactive) | > 100 µM (inactive) | > 100 µM (inactive) | > 100 µM (inactive) | > 100 µM (inactive) | > 100 µM (inactive) | > 100 µM (inactive) | 
2 | O=C(O)CCNc1ncc2c(n1)-c1ccccc1OC2 | > 100 µM (inactive) | > 100 µM (inactive) | > 100 µM (inactive) | > 100 µM (inactive) | > 100 µM (inactive) | > 100 | > 100 µM (inactive) | > 100 µM (inactive) | > 100 µM (inactive) | > 100 µM (inactive) | > 100 µM (inactive) | 28.8 µM (inactive) | > 100 µM (inactive) | > 100 µM (inactive) | 29 µM (inactive) | > 100 µM (inactive) | > 100 µM (inactive) | > 100 µM (inactive) | > 100 µM (inactive) | 
3 | O=C(CC(C(=O)c1cccs1)c1cccs1)c1ccsc1 (stereo unspecified) | 10.2 µM (inactive) | 35.6 µM (inactive) | > 100 µM (inactive) | 35.7 µM (inactive) | 56.4 µM (inactive) | 38.3 | 47.5 µM (inactive) | 39.6 µM (inactive) | > 100 µM (inactive) | 60 µM (inactive) | 38 µM (inactive) | 40.2 µM (inactive) | 29 µM (inactive) | 67 µM (inactive) |  | 19.4 µM (inactive) | 46.2 µM (inactive) | 45.3 µM (inactive) | 35.8 µM (inactive) | 
4 | O=C(O)CSc1nnc(COc2ccc(Cl)cc2)n1-c1ccccc1 | > 100 µM (inactive) | > 100 µM (inactive) | > 100 µM (inactive) | > 100 µM (inactive) | > 100 µM (inactive) | > 100 | > 100 µM (inactive) |  | > 100 µM (inactive) | > 100 µM (inactive) | > 100 µM (inactive) | > 100 µM (inactive) | > 100 µM (inactive) |  | > 100 µM (inactive) | > 100 µM (inactive) | > 100 µM (inactive) | > 100 µM (inactive) | > 100 µM (inactive) | 
5 | COC(=O)c1ccc(/C=C(\c2ccc([N+](=O)[O-])o2)S(=O)(=O)c2ccc(NC(C)=O)cc2)o1 |  | 13.9 µM (inactive) | 3.8 µM (inactive) | 15.9 µM (inactive) | 13.6 µM (inactive) | 2.45 | 4.69 µM (inactive) | 3.93 µM (inactive) | 15.4 µM (inactive) | 1.98 µM (inactive) | 2.01 µM (inactive) | 19.3 µM (inactive) | 3.03 µM (inactive) | 4.2 µM (inactive) | 10.3 µM (inactive) |  | 2.83 µM (inactive) | 2.9 µM (inactive) | 14.8 µM (inactive) | 0.565 µM (active)
6 | COc1ccc(CC2c3cc(OC)c(OC)c(OC)c3CC[N+]2(C)C)cc1Oc1ccc(CC2c3cc4c(c(OC)c3CC[N+]2(C)C)OCO4)cc1 (stereo unspecified) | > 100 µM (inactive) | > 100 µM (inactive) | > 100 µM (inactive) | > 100 µM (inactive) | > 100 µM (inactive) | > 100 | > 100 µM (inactive) | > 100 µM (inactive) | > 100 µM (inactive) | > 100 µM (inactive) | > 100 µM (inactive) | 91.6 µM (inactive) | > 100 µM (inactive) |  | > 100 µM (inactive) |  | > 100 µM (inactive) | > 100 µM (inactive) | > 100 µM (inactive) | > 100 µM (inactive)
7 | Cc1cc(=O)oc2c(CNC(CC(C)C)C(=O)O)c(O)ccc12 (stereo unspecified) | > 100 µM (inactive) | > 100 µM (inactive) | > 100 µM (inactive) | > 100 µM (inactive) | > 100 µM (inactive) | > 100 | > 100 µM (inactive) | > 100 µM (inactive) | > 100 µM (inactive) | > 100 µM (inactive) | > 100 µM (inactive) | 39.7 µM (inactive) | > 100 µM (inactive) | > 100 µM (inactive) | > 100 µM (inactive) | > 100 µM (inactive) | > 100 µM (inactive) | > 100 µM (inactive) | > 100 µM (inactive) | 
8 | CC(C)[Si](OC12CCC(CC1O)CC2C(=O)O)(C(C)C)C(C)C (stereo unspecified) |  | 15.5 µM (inactive) | 14 µM (inactive) | 14.6 µM (inactive) | 12.7 µM (inactive) | 12.4 | 11.2 µM (inactive) | 18.9 µM (inactive) | 19.1 µM (inactive) | 16.7 µM (inactive) | 14.7 µM (inactive) | 6.1 µM (inactive) | 0.459 µM (active) | 27.4 µM (inactive) | 7.31 µM (inactive) | 17 µM (inactive) | 13.2 µM (inactive) | 21.7 µM (inactive) | 12.5 µM (inactive) | 
9 | Brc1ccc(-c2ccc(-c3ccc(Br)s3)s2)s1 | > 100 µM (inactive) | > 100 µM (inactive) | > 100 µM (inactive) | > 100 µM (inactive) | > 100 µM (inactive) | > 100 | > 100 µM (inactive) | > 100 µM (inactive) |  | > 100 µM (inactive) |  | > 100 µM (inactive) | > 100 µM (inactive) | > 100 µM (inactive) | > 100 µM (inactive) | > 100 µM (inactive) | > 100 µM (inactive) | > 100 µM (inactive) | > 100 µM (inactive) | > 100 µM (inactive)
10 | Cc1ccc(/C=c2\cc3oc(=O)c4cccc(c4-3)c2=O)cc1 | 61.4 µM (inactive) | > 100 µM (inactive) | > 100 µM (inactive) | > 100 µM (inactive) | 59.3 µM (inactive) | > 100 | > 100 µM (inactive) |  | > 100 µM (inactive) | > 100 µM (inactive) | > 100 µM (inactive) | > 100 µM (inactive) | 39.1 µM (inactive) | > 100 µM (inactive) | > 100 µM (inactive) |  | > 10 µM (inactive) | > 100 µM (inactive) | > 100 µM (inactive) | 
11 | Brc1cccc[n+]1-c1ccc2cc(-[n+]3ccccc3Br)ccc2c1 | 16.3 µM (inactive) | > 100 µM (inactive) | 39.8 µM (inactive) | 32.2 µM (inactive) | 31.8 µM (inactive) | 32.5 | > 100 µM (inactive) | 77.3 µM (inactive) | > 100 µM (inactive) | > 100 µM (inactive) | 24.2 µM (inactive) |  | 28.6 µM (inactive) | 19.3 µM (inactive) |  |  |  | 31 µM (inactive) | > 100 µM (inactive) | 97.9 µM (inactive)
12 | O=C1c2ccccc2CC12Cc1cc3c(cc1C2=O)CCC3 (stereo unspecified) | > 100 µM (inactive) | > 100 µM (inactive) | > 100 µM (inactive) | > 100 µM (inactive) | > 100 µM (inactive) | > 100 | > 100 µM (inactive) | > 100 µM (inactive) | > 100 µM (inactive) | > 100 µM (inactive) | > 100 µM (inactive) | > 100 µM (inactive) | > 100 µM (inactive) | > 100 µM (inactive) | > 100 µM (inactive) | > 100 µM (inactive) | > 100 µM (inactive) |  | > 100 µM (inactive) | 
13 | O=C(CCl)N1CCN(c2ccccc2)CC1 |  | 18.1 µM (inactive) | 20.6 µM (inactive) |  | 14.5 µM (inactive) | 20.1 | 18.3 µM (inactive) | 16.3 µM (inactive) | 15.8 µM (inactive) | 23.2 µM (inactive) |  | 16.7 µM (inactive) | 20 µM (inactive) |  | 21.4 µM (inactive) | 22.6 µM (inactive) | 27.2 µM (inactive) | 21.5 µM (inactive) | 40.9 µM (inactive) | 
14 | O=C(Nc1cc(C(F)(F)F)ccc1Cl)C(=O)C(C(=O)c1ccc2ccccc2c1)C1OC(=O)c2ccccc21 (stereo unspecified) | 6.32 µM (inactive) | 5.26 µM (inactive) | 8.95 µM (inactive) | 12.6 µM (inactive) | 4.13 µM (inactive) | 6.32 | 5.13 µM (inactive) | 7.69 µM (inactive) | 7.21 µM (inactive) | 10 µM (inactive) |  | 7.41 µM (inactive) | 11 µM (inactive) | 2.08 µM (inactive) | 11.8 µM (inactive) |  | 2.09 µM (inactive) | 10.4 µM (inactive) |  | 
15 | COc1ccc(-c2c3c(n(C4OC(COC(C)=O)C(OC(C)=O)C(OC(C)=O)C4OC(C)=O)c(=S)c2C#N)CCCC3)cc1 (stereo unspecified) | > 100 µM (inactive) | 37.9 µM (inactive) | > 100 µM (inactive) | 16.2 µM (inactive) | 34.2 µM (inactive) | 41.5 | 61.9 µM (inactive) | 34.4 µM (inactive) | 20.5 µM (inactive) | > 100 µM (inactive) | 55.8 µM (inactive) | 16.4 µM (inactive) | 62.5 µM (inactive) | 69.5 µM (inactive) |  | 91.4 µM (inactive) | 27.6 µM (inactive) | 69.5 µM (inactive) | 19.5 µM (inactive) | 
16 | O=C(OC1=CCN(Br)C1=O)C1=C(O)C(=O)N(Br)C1 | 20.9 µM (inactive) | 32.4 µM (inactive) | 21.1 µM (inactive) | 26.4 µM (inactive) | 24.9 µM (inactive) | 57.3 | 18.8 µM (inactive) | 17.2 µM (inactive) | 58.7 µM (inactive) | 26.9 µM (inactive) | 29.2 µM (inactive) | 24.3 µM (inactive) | 24.5 µM (inactive) |  |  |  | 22.8 µM (inactive) | 23.7 µM (inactive) | 29.3 µM (inactive) | 18.2 µM (inactive)
